Reference: patent publication EP2930248B1, “METHOD FOR PREDICTING SENSITIVITY OF OSTEOSARCOMA PATIENT TO ANTICANCER AGENT” (National Cancer Center, priority 2014, dated 2015)

Legend:
143B = assay: Sensitivity test: cell viability (Cell Counting Kit-8) after anticancer agent, RNA-transfected cells; type: cell-based, Human; details: 143B cells, MTX 72 hours, DOX and CDDP 48 hours
Experimental: (§1) Human osteosarcoma cell lines used were MNNG/HOS, MG63 and 143B. The cells were seeded in a 96-well plate at 3 x 10^3 cells/well. After 24 hours, the medium was replaced with fresh medium and miRNA-100 (SEQ ID NO: 1), miRNA-125b (SEQ ID NO: 2) or negative control (nonsense RNA) (microRNA control, Non-target RNA (S10CM0600; COSMO BIO Co., Ltd)) was introduced to the cells using DharmaFECT transfection reagents (Thermo Scientific). At 24 hours after RNA introduction, the medium was replaced with fresh medium. Specific procedures followed the protocol attached to the gene transfer reagents used.
(§2) Methotrexate (MTX), doxorubicin (DOX) and cisplatin (CDDP) were applied to the cells lines MNNG/HOS, MG63 or 143B to which various RNAs were introduced under following conditions followed by incubation over a certain period. The viability of the cells thereafter was measured with the Cell Counting Kit-8 (Dojindo Laboratories). Specific procedures followed the protocol attached to the kit used.
(§3) Methotrexate (MTX): applied at a final concentration of 0 to 32 µM and incubated for 72 hours.
(§4) Doxorubicin (DOX): applied at a concentration of 0 to 1.3 µM and incubated for 48 hours.
(§5) Cisplatin (CDDP): applied at a final concentration of 0 to 32 µM and incubated for 48 hours.
(§6) From the results of measurement of the viability of the cells, the 50% inhibitory concentration of cell proliferation (IC50) for each anticancer agent was determined.

MG63 = assay: as above; type: cell-based, Human; details: MTX 72 hours, DOX and CDDP 48 hours
Experimental: as §1, §2, §3, §4, §5, §6

MNNG/HOS = assay: as above; type: cell-based, Human; details: MTX 72 hours, DOX and CDDP 48 hours
Experimental: as §1, §2, §3, §4, §5, §6

BAK1 = BAK1 protein expression by western blotting in RNA-transfected MNNG/HOS cells; type: cell-based, human; details: with application of DOX 64 µM, 48 hours, Fig. 8
Experimental: as §1, with “A human” for “Human”, “line” for “lines”, “was MNNG/HOS.” for “were MNNG/HOS, MG63 and 143B.”, “and” for “and miRNA-100 (SEQ ID NO: 1),”
Doxorubicin (DOX) at a final concentration of 0 µM or 64 µM was applied to MNNG/HOS cells to which various RNAs were introduced as above (1) and then the cells were incubated for 48 hours. To the collected cells was added a urea-containing lysis buffer and the mixture was incubated on ice for 30 minutes to lyse the cells. The lysed cells were centrifuged at 15,000 rpm for 30 minutes at 4°C and the supernatant was collected. The protein concentration in the supernatant was quantified by the Bradford assay (Bio-Rad).
Proteins in the supernatant were separated by electrophoresis using an SDS/polyacrylamide gel and transferred onto a nitrocellulose membrane (Bio-Rad). […] After the membrane was washed with TBS-T, the antigen-antibody complex was detected with the ECL-Prime kit (GE).

[1] = Homo sapiens, 143B, control (negative control nonsense RNA) introduced
[2] = Homo sapiens, 143B, miR-100 introduced
[3] = Homo sapiens, 143B, miR-125b introduced
[4] = Homo sapiens, MG-63, MG63 cells, control (negative control nonsense RNA) introduced
[5] = Homo sapiens, MG-63, MG63 cells, miR-100 introduced
[6] = Homo sapiens, MG-63, MG63 cells, miR-125b introduced
[7] = Homo sapiens, HOS, control (negative control nonsense RNA) introduced
[8] = Homo sapiens, HOS, miR-100 introduced
[9] = Homo sapiens, HOS, miR-125b introduced
[10] = control (negative control nonsense RNA) introduced

SMILES	IC50 (143B; [1])	IC50 (143B; [2])	IC50 (143B; [3])	IC50 (MG63; [4])	IC50 (MG63; [5])	IC50 (MG63; [6])	IC50 (MNNG/HOS; [7])	IC50 (MNNG/HOS; [8])	IC50 (MNNG/HOS; [9])	IC50 (143B; [10])	IC50 (143B; miR-100 introduced)	IC50 (143B; miR-125b introduced)	IC50 (MG63; MG63 cells, control (negative control nonsense RNA) introduced)	IC50 (MG63; MG63 cells, miR-100 introduced)	IC50 (MG63; MG63 cells, miR-125b introduced)	IC50 (MNNG/HOS; [10])	IC50 (MNNG/HOS; miR-100 introduced)	IC50 (MNNG/HOS; miR-125b introduced)	expression level of BAK1 in NC versus miRNA-125b-introduced cell line (BAK1)
CN(Cc1cnc2nc(N)nc(N)c2n1)c1ccc(C(=O)N[C@@H](CCC(=O)O)C(=O)O)cc1 [MTX, Methotrexate]	1490 nM	3210 nM	3970 nM	3090 nM	7180 nM	7740 nM	1050 nM	2520 nM	4030 nM	–	–	–	–	–	–	–	–	–	–
[NH2][Pt]([NH2])([Cl])[Cl] [CDDP, Cisplatin]	–	–	–	–	–	–	–	–	–	12300 nM	14500 nM	14100 nM	2910 nM	2570 nM	1630 nM	5700 nM	6970 nM	7320 nM	–
COc1cccc2c1C(=O)c1c(O)c3c(c(O)c1C2=O)C[C@@](O)(C(=O)CO)C[C@@H]3O[C@H]1C[C@H](N)[C@H](O)[C@H](C)O1 [DOX, Doxorubicin]	64 nM	77 nM	72 nM	65 nM	73 nM	74 nM	180 nM	250 nM	370 nM	–	–	–	–	–	–	–	–	–	almost the same
